# Data from patent publication US12285397B2, “Use of (s)-3-amino-4-(difluoromethylenyl) cyclopent-1-ene-1-carboxylic acid and related compounds, (1S,3S)-3-amino-4-(difluoromethylidene) cyclopentane-1-carboxylic acid and vigabatrin in the treatment of developmental disorders” (Ovid Therapeutics Inc., priority 2018, dated 2025).
# How the values were obtained:
# Format in all cases: in vivo, mouse
# Fmr1 KO2 mice [1] = assay: Open field repetitive behavior: counter revolutions (CCW), Fmr1 KO2 mice
# Text: (§1) Mutant fmr1 knockout (KO) mice recapitulate the Fragile X syndrome (FXS) phenotype and represent a preclinical model for assessment of putative drug treatments. In this study three different mice models of FXS were used: Fmr1 KO1 is the original Fmr1 knockout animal that carries an insertion in exon 5. See, e.g., Bakker C E, et al., The Dutch-Belgian Fragile X Consortium, Fmr1 knockout mice: A model to study fragile X mental retardation. Cell. 1994; 78:23-33 It is a protein null, although Fmr1 mRNA is still present. It is backcrossed to the C57/B16 strain. Subsequently, these mice were bred into different background strains, such as the FVB inbred mouse strain. Fmr1 KO2 is a null allele at Fmr1 generated by deletion of the promoter and first exon of Fmr1. See, Mientjes, E J et al., The generation of a conditional Fmr1 knock out mouse model to study Fmrp function in vivo. Neurobiology of Disease (2006) 21(3): 549-555. It is both protein and mRNA null. Backcrossed to the C57/B16 strain. Genotyping was accomplished using TransnetXY Automated Genotyping (http://www.transnetyx.com/). TRANSNETYX, INC., 8110 Cordova Rd. Suite 119, Cordova, TN 38016, USA.
# (§2) The mice were housed in plastic cages (35×30×12 cm), 5 in each and habituated to the animal facilities for at least a week before test. The room temperature (21±2° C.), relative humidity (55±5%), a 12-h light-dark cycle (lights on 7 a.m.-7 p.m.) and air exchange (16 times per h) were automatically controlled. The animals had free access to commercial food pellets and water. Testing was conducted during the light phase. Testing was conducted on Fmr1 knockout mice and their wild-type (WT) littermates. Ten mice per treatment group, 14 weeks of age, were used for behavioral experiments. Experiments were conducted in line with the requirements of the UK Animals (Scientific Procedures) Act, 1986.
# (§3) Oral dosing was performed by using 1.5-in. curved, 20-gauge, stainless steel feeding needles with a 2.25-mm ball (Braintree Scientific, Braintree, MA). Each gavage treatment was given in 0.5% methyl cellulose (Methyl Cellulose M0512, Sigma-Aldrich, St Louis, MO) used as vehicle with or without treatment compounds. The same veterinarian, blinded to the treatment groups, performed the procedure, and documented animal reactions to oral gavage. Reactions considered to indicate stress were defined as excessive struggling during gavage or abnormal behavior after gavage (labored breathing, frozen stance, exaggerated jumping, shuddering, and hunched posture).
# (§4) For experiments all mice were tested once in the same apparatus. Prior to testing, mice not in the study were placed in the apparatus for some minutes before the experiment. The apparatus was then cleaned with moist and dry tissues before testing each mouse. The aim was to create a low but constant background mouse odor for all experimental subjects. All experiments were conducted with the experimenters blind to genotype and drug treatment during all testing and data analysis. Separate investigators prepared and coded dosing solutions, allocated the mice to the study treatment groups, dosed the animals, and collected the behavioral data. Data were analyzed by one-way analysis of variance (ANOVA) followed by post-hoc comparisons where appropriate using Tukey's Multiple Comparison Test. Data are represented as the mean and standard error of the mean (SEM).
# (§5) 2. Open Field Repetitive Behaviors (stereotypies: anticlockwise circling (aka counter revolutions) (CCW) and self grooming). Fmr1 KO2 mice display the autism-like phenotypes of repetitive behaviors like CCW, self grooming and stereotypy that typically involves behaviors such as head bobbing. […]
# Fmr1 KO2 mice [2] = assay: Open field repetitive behavior: self grooming, Fmr1 KO2 mice; parameters: Effect on abnormal self grooming phenotype (FIG. 3): dose or concentration left out as unconfirmed
# Text: as §1, §2, §3, §4, §5
# Fmr1 KO1 mice [3] = assay: Open field repetitive behavior: self grooming, Fmr1 KO1 mice
# Text: as §1, §2, §3, §4
# 2. Open Field Repetitive Behaviors (RB) (stereotypies: anticlockwise circling and self grooming). Fmr1 KO1 mice display the autism-like phenotypes of repetitive behaviors like counter revolutions (CCW), self grooming and stereotypy that typically involves behaviors such as head bobbing. […]
# Fmr1 KO1 mice [4] = assay: Tests of daily living (nesting), Fmr1 KO1 mice
# Text: as §1, §2, §3, §4
# 3. Tests of daily living (Nesting): FIG. 11 is a bar graph illustrating nest building quality by wild-type mice administered 0.5% methyl cellulose vehicle, Fmr1 KO1 mice administered 0.5% methyl cellulose, Fmr1 KO1 mice administered (S)-3-amino-4-(difluoromethylenyl) cyclopent-1-ene-1-carboxylic acid 0.01 mg/kg, Fmr1 KO1 mice administered (S)-3-amino-4-(difluoromethylenyl) cyclopent-1-ene-1-carboxylic acid 0.05 mg/kg, and Fmr1 KO1 mice administered (S)-3-amino-4-(difluoromethylenyl) cyclopent-1-ene-1-carboxylic acid 0.1 mg/kg.
# [5] = system: Fmr1 KO1 transgenic mice in an FVB background; assay: Audiogenic seizures (AGS), Fmr1 KO1 mice in FVB background; details: for Incidence / Respiratory arrest / Seizure / Wild running: audio stimulus 60 seconds at 124 db
# Experimental: 4. Audiogenic Seizures (AGS) are reflex seizures generated by loud noises in genetically predisposed mice. The Fmr1 KO1 mice display audiogenic seizures depending on age and background strain, the Fmr1 KO1 mouse on the FVB background is characterized by an increased AGS susceptibility at all ages and is considered a good animal model for epilepsy. The effect of (S)-3-amino-4-(difluoromethylenyl) cyclopent-1-ene-1-carboxylic acid was tested on AGS Fmr1 KO1 transgenic mice in an FVB background. Observable criteria are: 1. normal behavior, 2. wild running, 3. seizure, and 4. respiratory arrest.
# (S)-3-amino-4-(difluoromethylenyl) cyclopent-1-ene-1-carboxylic acid was administered to Fmr1 KO1 mice, males, age 2 months in the following amounts: 0.01 mg/kg, 0.05 mg/kg, and 0.1 mg/kg. Positive controls were administered 2-Methyl-6-(phenylethynyl)pyridine (MPEP), a mGluR5 antagonist, 30 mg/kg by i.p. and tested 20 minutes after injection. Audio stimulus was administered continuously for 60 seconds at 124 db.
compound,measurement,setting,value
"N[C@H]1C=C(C(=O)O)CC1=C(F)F [Compound, (S)-3-Amino-4-(difluoromethylenyl)cyclopent-1-ene-1-carboxylic acid]","Open field counter revolutions (CCW), WT-Veh vs. KO2-Compound: Significant?",Fmr1 KO2 mice [1]; 0.01 mg/Kg PO QD seven days,Yes
same,"Open field counter revolutions (CCW), WT-Veh vs. KO2-Compound: Significant?",Fmr1 KO2 mice [1]; 0.05 mg/Kg PO QD seven days,No
same,"Open field counter revolutions (CCW), WT-Veh vs. KO2-Compound: Summary",Fmr1 KO2 mice [1]; 0.05 mg/Kg PO QD seven days,ns
same,"Open field counter revolutions (CCW), WT-Veh vs. KO2-Compound: Significant?",Fmr1 KO2 mice [1]; 0.1 mg/Kg PO QD seven days,No
same,"Open field counter revolutions (CCW), WT-Veh vs. KO2-Compound: Summary",Fmr1 KO2 mice [1]; 0.1 mg/Kg PO QD seven days,ns
same,Effect on CCW revolutions phenotype (FIG. 2),Fmr1 KO2 mice [1]; 0.05 and 0.1 mg/Kg,rescued
same,Effect on abnormal self grooming phenotype (FIG. 3),Fmr1 KO2 mice [2],rescued
same,"Time spent grooming (self grooming), WT-Veh vs. KO2-Compound: Significant?",Fmr1 KO2 mice [2]; 0.01 mg/Kg PO QD seven days,Yes
same,"Time spent grooming (self grooming), WT-Veh vs. KO2-Compound: Significant?",Fmr1 KO2 mice [2]; 0.05 mg/Kg PO QD seven days,No
same,"Time spent grooming (self grooming), WT-Veh vs. KO2-Compound: Summary",Fmr1 KO2 mice [2]; 0.05 mg/Kg PO QD seven days,ns
same,"Time spent grooming (self grooming), WT-Veh vs. KO2-Compound: Significant?",Fmr1 KO2 mice [2]; 0.1 mg/Kg PO QD seven days,No
same,"Time spent grooming (self grooming), WT-Veh vs. KO2-Compound: Summary",Fmr1 KO2 mice [2]; 0.1 mg/Kg PO QD seven days,ns
same,"Self grooming (time spent grooming), WT-Veh vs. KO1-Compound: Significant?",Fmr1 KO1 mice [3]; 0.01 mg/Kg PO QD seven days,Yes
same,"Self grooming (time spent grooming), WT-Veh vs. KO1-Compound: Significant?",Fmr1 KO1 mice [3]; 0.05 mg/Kg PO QD seven days,No
same,"Self grooming (time spent grooming), WT-Veh vs. KO1-Compound: Summary",Fmr1 KO1 mice [3]; 0.05 mg/Kg PO QD seven days,ns
same,"Self grooming (time spent grooming), WT-Veh vs. KO1-Compound: Significant?",Fmr1 KO1 mice [3]; 0.1 mg/Kg PO QD seven days,No
same,"Self grooming (time spent grooming), WT-Veh vs. KO1-Compound: Summary",Fmr1 KO1 mice [3]; 0.1 mg/Kg PO QD seven days,ns
same,Time self-grooming compared with WT+veh (FIG. 9),Fmr1 KO1 mice [3]; 0.05 and 0.1 mg/Kg,did not differ from WT+veh
same,"Nesting, WT-Veh vs. KO1-Compound: Significant?",Fmr1 KO1 mice [4]; 0.01 mg/Kg PO QD seven days,Yes
same,"Nesting, WT-Veh vs. KO1-Compound: Significant?",Fmr1 KO1 mice [4]; 0.05 mg/Kg PO QD seven days,No
same,"Nesting, WT-Veh vs. KO1-Compound: Summary",Fmr1 KO1 mice [4]; 0.05 mg/Kg PO QD seven days,ns
same,"Nesting, WT-Veh vs. KO1-Compound: Significant?",Fmr1 KO1 mice [4]; 0.1 mg/Kg PO QD seven days,No
same,"Nesting, WT-Veh vs. KO1-Compound: Summary",Fmr1 KO1 mice [4]; 0.1 mg/Kg PO QD seven days,ns
same,Effect on nesting behavior (FIG. 11),Fmr1 KO1 mice [4]; 0.05 and 0.1 mg/Kg,rescues poor nesting behavior
same,Incidence,[5]; 0.01 mg/kg,100%
same,Respiratory arrest,[5]; 0.01 mg/kg,7/10
same,Seizure,[5]; 0.01 mg/kg,10/10
same,Wild running,[5]; 0.01 mg/kg,10/10
same,Incidence,[5]; 0.05 mg/kg,100%
same,Respiratory arrest,[5]; 0.05 mg/kg,5/10
same,Seizure,[5]; 0.05 mg/kg,8/10
same,Wild running,[5]; 0.05 mg/kg,10/10
same,Audiogenic seizure susceptibility reduced to,"[5]; 0.1 mg/Kg, Fmr1 KO1 mice (FVB background)",40%
same,Incidence,[5]; 0.1 mg/kg,40%
same,Respiratory arrest,[5]; 0.1 mg/kg,4/10
same,Seizure,[5]; 0.1 mg/kg,5/10
same,Wild running,[5]; 0.1 mg/kg,4/10
